Source: ChEMBL document CHEMBL3301361, “Experimental in vitro DMPK and physicochemical data on a set of publicly disclosed compounds”
≈ marks a conversion by molar mass, not a printed value. Residues, ends and D or L forms follow the SMILES beside them.

How the values were obtained:
in vitro [1] = conditions: human, plasma
in vitro [2] = conditions: SD, HW or BN, rat, plasma
in vitro [3] = conditions: Beagle, dog, plasma
physchem [4] = conditions: octan-1-ol/water
in vitro [5] = conditions: human
physchem [6] = conditions: pH 7.4 buffer

| Compound | fraction unbound at 5 h (in vitro [1]; PPB) | fraction unbound at 5 h (in vitro [2]) | fraction unbound at 5 h (in vitro [3]) | logD (physchem [4]; pH 7.4, LogD7.4) | microsomal CLint (in vitro [5]; microsomes) | solubility thermodynamic (physchem [6]) | microsomal CLint (in vitro [5]; liver microsomes) | fraction unbound at 5 h (in vitro [1]) | logD (physchem [4]; pH 7.4) |
| --- | --- | --- | --- | --- | --- | --- | --- | --- | --- |
| O=C(NC12CC3CC(CC(C3)C1)C2)OCCNC1CCCCC1 | 0.11 | 0.129 | 0.16 | – | – | – | – | – | – |
| Cc1cc(Nc2nc(O[C@@H](C)c3ncc(F)cn3)ncc2Cl)[nH]n1 | 0.249 | 0.339 | 0.489 | 1.82 | – | – | – | – | – |
| CCOc1cc2nnc(C(N)=O)c(Nc3ccc(C)cc3F)c2cc1N1CCN(C)CC1 | 0.016 | 0.0633 | 0.062 | – | – | – | – | – | – |
| N#Cc1cccc(-c2cc(Cl)ccc2OCC(=O)O)c1 | 0.0075 | 0.0343 | 0.0234 | – | < 3 µL/min/mg | – | – | – | – |
| CC(C)(C)OC(=O)NC[C@H]1CC[C@H](CNC(=O)c2cc(N3CCC(CCO)CC3)nc3ccccc23)CC1 | 0.007 | 0.0099 | 0.0084 | – | – | – | – | – | – |
| O=c1cc(N2CCOCC2)nc2n(Cc3cccc4ccccc34)ccn12 | 0.0307 | 0.0477 | 0.0676 | 3.3 | – | – | – | – | – |
| Cc1cc(C(C)Nc2ccccc2)c2nc(N3CCOCC3)cc(=O)n2c1 (centres undefined) | 0.0532 | 0.0467 | 0.0606 | – | – | – | – | – | – |
| COc1cc2c(cc1-c1c(C)noc1C)ncc1[nH]c(=O)n([C@H](C)c3ccccn3)c12 | 0.0234 | 0.0374 | 0.105 | 3.15 | 7.59 µL/min/mg | – | – | – | – |
| N[C@H]1CCN(c2c(Cl)cccc2/C=C2\SC(=O)NC2=O)C1 | 0.0234 | 0.0467 | 0.0581 | 1.89 | – | – | – | – | – |
| CCOc1noc2cc(OCCC3CCN(c4ccc(C)nn4)CC3)ccc12 | 0.0014 | 0.0015 | 0.0031 | – | – | – | – | – | – |
| Cc1ccc(NC(=O)c2cccc(C(C)(C)C#N)c2)cc1Nc1ccc2ncn(C)c(=O)c2c1 | 0.0039 | 0.5 | 0.004 | – | – | – | – | – | – |
| CC(C)Oc1cc(-n2cnc3ccc(N[C@@H](CO)c4ccc(F)cn4)nc32)n[nH]1 | 0.0818 | 0.186 | 0.304 | 2.79 | – | – | – | – | – |
| CC(C)Oc1cc(Nc2nc3c(cc2F)ncn3[C@@H](CO)c2ccc(F)cn2)n[nH]1 | 0.051 | 0.119 | 0.249 | 2.97 | – | – | – | – | – |
| N#Cc1ccccc1C[C@@H](C(=O)O)N1CCC(CN2CCC(Oc3ccc(Cl)c(Cl)c3)CC2)CC1 | – | 0.224 | 0.0661 | – | – | 288 µM (≈ 149 µg/mL) | – | – | – |
| O=C(O)[C@H](Cc1ccc(F)cc1)N1CCC(CN2CCC(Oc3ccc(Cl)c(Cl)c3)CC2)CC1 | 0.114 | 0.22 | 0.224 | 2.98 | – | 72.4 µM (≈ 36.9 µg/mL) | – | – | – |
| N#Cc1ccc2ccc(=O)n(CCN3CC[C@H](NCc4cc5c(cn4)OCCO5)[C@H](O)C3)c2c1 | – | 0.734 | 0.608 | 0.46 | – | – | – | – | – |
| N#Cc1ccc2ccc(=O)n(CCN3CC[C@@H](NCc4cc5c(cn4)OCCO5)[C@@H](O)C3)c2c1 | – | 0.471 | 0.602 | 0.45 | – | – | – | – | – |
| CO[C@H]1CN(CCn2c(=O)ccc3ccc(C#N)cc32)CC[C@H]1NCc1cc2c(cn1)OCCO2 | 0.483 | 0.738 | 0.569 | 0.63 | – | – | – | – | – |
| C[C@H]1CN(c2cc(N(CCO)Cc3cccc4ccccc34)[nH]c(=O)n2)CCO1 | 0.16 | 0.0948 | 0.299 | – | – | – | – | – | – |
| Cc1cn([C@H]2CCCN([C@@H](C)c3ccc(C(=O)O)c(Oc4cccc(Cl)c4)c3)C2)c(=O)[nH]c1=O | 0.0229 | 0.0268 | 0.0532 | -0.26 | – | – | – | – | – |
| CCNC(=O)Nc1nc2cc(-c3cccnc3)cc(-c3ncccc3F)c2[nH]1 | 0.0136 | 0.028 | 0.04 | – | – | – | – | – | – |
| C[S+]([O-])Cc1ccc(C(=O)Nc2ccc(OCCOCCO)nc2C(=O)NCC2CCC2)c2ccccc12 (centres undefined) | 0.0499 | 0.0343 | 0.0581 | – | – | – | – | – | – |
| CC(C)(C)NC(=O)NCCN1CCCC(NC(=O)c2cc(Cl)cc(Cl)c2)C1 (centres undefined) | 0.028 | 0.0391 | 0.0633 | – | – | – | – | – | – |
| CC(C)(C)NC(=O)NCCN1CCC(O)(CNC(=O)c2cc(Cl)cc(Cl)c2)CC1 | 0.232 | 0.232 | 0.36 | – | – | – | – | – | – |
| O=C(CN1CCN(CCC2CCOCC2)CC1)NC12CC3CC(CC(C3)C1)C2 | 0.529 | 0.392 | 0.431 | – | – | – | – | – | – |

| Compound | fraction unbound at 5 h (in vitro [1]; PPB) | fraction unbound at 5 h (in vitro [2]) | fraction unbound at 5 h (in vitro [3]) | logD (physchem [4]; pH 7.4, LogD7.4) | microsomal CLint (in vitro [5]; microsomes) | solubility thermodynamic (physchem [6]) | microsomal CLint (in vitro [5]; liver microsomes) | fraction unbound at 5 h (in vitro [1]) | logD (physchem [4]; pH 7.4) |
| --- | --- | --- | --- | --- | --- | --- | --- | --- | --- |
| CC(C)(C)S(=O)(=O)CCCN1CCN(CC(=O)NC23CC4CC(CC(C4)C2)C3)CC1 | 0.349 | 0.309 | 0.289 | – | – | – | – | – | – |
| CC(C)(C)NC(=O)NCCN1CCC(CNC(=O)c2cc(Cl)cc(Cl)c2)CC1 | 0.11 | 0.17 | 0.11 | – | – | – | – | – | – |
| CC(C)(C)NC(=O)NCCN1CCOC(CNC(=O)c2cc(Cl)cc(Cl)c2)C1 (centres undefined) | 0.0606 | 0.0676 | 0.0818 | – | – | – | – | – | – |
| CC(C)(C)NC(=O)NCCN1CCC(CNC(=O)c2cc(Cl)cc(Cl)c2)C1 (centres undefined) | 0.0968 | 0.139 | 0.0909 | – | – | – | – | – | – |
| COc1ccc2c(C)cc(N[C@H]3CC[C@H](NCc4cn(C)c5ccc(C#N)cc45)C3)nc2c1 | 0.0139 | 0.0146 | 0.0209 | – | – | – | – | – | – |
| CCOc1cc2ncc(C(N)=O)c(Nc3cccc(Cl)c3F)c2cc1N1CCN(C)CC1 | 0.0705 | 0.134 | 0.204 | – | – | – | – | – | – |
| Cc1cc(Nc2nc(N[C@@H](C)c3ncc(F)cn3)c(C#N)nc2C)n[nH]1 | 0.304 | 0.349 | 0.454 | 1.92 | – | – | – | – | – |
| Cc1cc(Nc2cnc(C#N)c(N[C@@H](C)c3ncc(F)cn3)n2)n[nH]1 | 0.186 | 0.376 | 0.398 | 1.96 | – | – | – | – | – |
| Cc1cc(Nc2cnc(C#N)c(N[C@@H](C)c3ccc(F)cn3)n2)n[nH]1 | 0.145 | 0.16 | 0.204 | 2.51 | – | – | – | – | – |
| Cc1cc(Nc2nc(N[C@@H](C)c3ccc(F)cn3)c(C#N)nc2C)n[nH]1 | 0.173 | 0.19 | 0.262 | – | – | – | – | – | – |
| CCCCNC(=O)c1ccc(Oc2ccc(CC(=O)O)cc2OC)c(NS(=O)(=O)c2ccc(Cl)cc2Cl)c1 | 0.002 | 0.0019 | 0.0171 | – | < 3 µL/min/mg | – | – | – | – |
| C[C@H](NC(=O)[C@@H](Cc1c[nH]c2ccccc12)NC(=O)[C@@H](N)Cc1c[nH]cn1)C(=O)N[C@@H](Cc1c[nH]c2ccccc12)C(=O)N[C@H](Cc1ccccc1)C(=O)N[C@@H](CCCCN)C(N)=O (HELM PEPTIDE1{H.[dW].A.W.[dF].K.[am]}$$$$V2.0) | – | 0.262 | 0.183 | – | – | – | 61.7 µL/min/mg | – | – |
| COC[C@H](O)Cn1c(=O)cnn(-c2ccc(Cl)c(C(=O)NCC3(O)CCCCCC3)c2)c1=O [CE-224535] | 0.415 | 0.477 | 0.552 | 1.46 | – | – | – | – | – |
| O=c1[nH]c2ccccc2n1CCCN1CCC(n2c(=O)[nH]c3cc(Cl)ccc32)CC1 [DOMPERIDONE] | – | 0.069 | 0.0872 | – | – | – | – | 0.0335 | 3.45 |
| COc1cc2c(cc1OC)C(=O)C(CC1CCN(Cc3ccccc3)CC1)C2 (centres undefined) [DONEPEZIL] | 0.105 | 0.339 | 0.613 | – | – | – | – | – | – |
| O=C(Cn1c(Cl)cnc(NCC(F)(F)c2ccccn2)c1=O)NCc1ncccc1F [DPOC-4088] | 0.28 | 0.208 | 0.392 | – | – | – | – | – | – |
| CCCn1c(=O)[nH]c(=O)c2[nH]cnc21 [ENPROFYLLINE] | 0.329 | 0.212 | 0.392 | – | – | – | – | – | – |
| CN(C)CCCN1c2ccccc2CCc2ccccc21 [IMIPRAMINE] | – | 0.173 | 0.0437 | – | – | – | – | 0.121 | – |
| C[C@@H]1C[C@H]2[C@@H]3CCC4=CC(=O)C=C[C@]4(C)[C@@]3(Cl)[C@@H](O)C[C@]2(C)[C@@]1(OC(=O)c1ccco1)C(=O)CCl [MOMETASONE FUROATE] | 0.0023 | 0.001 | 0.003 | – | – | – | – | – | – |
| CC[C@@H](Nc1c(Nc2cccc(C(=O)N(C)C)c2O)c(=O)c1=O)c1ccc(C)o1 [NAVARIXIN ANHYDROUS] | 0.0179 | 0.0106 | 0.089 | 2.32 | – | – | – | – | – |
| COC(=O)C1=C(C)NC(C)=C(C(=O)OC)C1c1ccccc1[N+](=O)[O-] [NIFEDIPINE] | – | 0.0023 | 0.0736 | – | – | – | – | 0.0383 | – |
| COCCOC(=O)C1=C(C)NC(C)=C(C(=O)OC(C)C)C1c1cccc([N+](=O)[O-])c1 (centres undefined) [NIMODIPINE] | 0.0183 | 0.0175 | 0.0116 | 3.8 | – | 3.1 µM (≈ 1.3 µg/mL) | – | – | – |
| O=C(O)CCn1c2c(c3ccccc31)C[C@H](NS(=O)(=O)c1ccc(F)cc1)CC2 [RAMATROBAN] | 0.0274 | 0.0328 | 0.0437 | – | – | – | – | – | – |
| O=C(Nc1ccccc1F)N[C@H]1N=C(c2ccccc2)c2ccccc2NC1=O [RSV-604] | – | 0.0274 | 0.0307 | – | – | 2.6 µM (≈ 1.01 µg/mL) | – | 0.0366 | 4 |
| N#CC[C@H](C1CCCC1)n1cc(-c2ncnc3[nH]ccc23)cn1 [RUXOLITINIB] | 0.0532 | 0.173 | 0.166 | 2.55 | – | – | – | – | – |
